Laboratory results reported in patent publication US10221163B2 (priority 2015, dated 2019).
pIC50: −log10 of the molar value. Read-outs that look alike come from different tables or passages of the source.

Assays:
IMP-1 = IMP-1 (Serratia marcescens, UniProt P52699); assay: biochemical; type: biochemical; details: CCF2-FA substrate, 2 pM enzyme, 2 hours at 25° C.
Method in brief: (§1)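 Fluorescence assay, CCF2-FA substrate (cephalosporin core linking 7-hydroxycoumarin to fluorescein); inhibitor + MBL + substrate, 2 h, 25° C. IC50 by 4-parameter fit, semi-log plot.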

NDM-1 = NDM-1 (Klebsiella pneumoniae, UniProt C7C422); assay: biochemical; type: biochemical; details: fluorescence assay, CCF2-FA substrate, 1 pM enzyme, 2 hours at 25° C.; read-out: NDM-1 IC50
Chain of NDM-1 (C7C422 whole entry, looked up, species assumed): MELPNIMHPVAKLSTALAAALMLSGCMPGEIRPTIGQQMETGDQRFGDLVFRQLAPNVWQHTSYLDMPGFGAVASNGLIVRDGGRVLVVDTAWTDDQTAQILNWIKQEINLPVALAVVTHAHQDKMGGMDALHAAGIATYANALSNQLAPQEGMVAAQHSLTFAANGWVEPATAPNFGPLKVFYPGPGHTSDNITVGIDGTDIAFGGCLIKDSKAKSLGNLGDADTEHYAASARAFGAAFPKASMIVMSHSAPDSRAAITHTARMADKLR
Method in brief: as §1

VIM-1 = VIM-1 (Pseudomonas aeruginosa (strain ATCC 15692 / DSM 22644 / CIP 104116 / JCM 14847 / LMG 12228 / 1C / PRS 101 / PAO1), UniProt A0A0F7KYQ8); assay: biochemical; details: CCF2-FA substrate, 30 pM enzyme, 2 hours at 25° C.
Method in brief: as §1

[1] = tested on: Escherichia coli expressing NDM-1 (CLB30005, CLB30016); type: cell-based; details: NDM-1 strain, with imipenem 1 μg/ml, 95% inhibition of growth
Method in brief: (§2)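 Clinical isolates (E. coli NDM-1, S. marcescens IMP-1, K. pneumoniae VIM-1) were diluted 1:100 from saline suspension into 1.1×CAMHB and exposed to test compound with imipenem at 1 μg/ml. Plates were incubated at 35° C for 22 hours to 24 hours, and growth was read by absorbance.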

[2] = tested on: Klebsiella pneumoniae expressing VIM-1 (IHMA599644); type: cell-based; details: VIM-1 strain IHMA599644, with imipenem 1 μg/ml, 95% inhibition of growth
Method in brief: as §2

[3] = tested on: Serratia marcescens expressing IMP-1 (CL5741); type: cell-based; details: IMP-1 strain CL5741, with imipenem 1 μg/ml, 95% inhibition of growth
Method in brief: as §2

[4] = tested on: Pseudomonas aeruginosa efflux+ (MB9798), IMP-1; type: cell-based; design: Concentration of metallo-β-lactamase inhibitor which restores susceptibility of efflux + (MB9798) strain to imipenem: unit not given here; details: efflux+ MB9798; imipenem at 2 μg/mL; in the presence of a class A, C, D serine β-lactamase inhibitor closely related to relebactam
Method in brief: (§3)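 Steps: add fixed imipenem and/or ceftazidime (usually CLSI breakpoint) and fixed AmpC-directed class A/C inhibitor to microbroth MIC wells; titrate MBL inhibitor; record concentration regaining susceptibility for each PAO1-derived strain; divide efflux+ by efflux− value.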

[5] = tested on: Pseudomonas aeruginosa efflux− (MB9799), IMP-1; type: cell-based; details: efflux− MB9799; imipenem at 2 μg/mL; in the presence of a class A, C, D serine β-lactamase inhibitor closely related to relebactam
Method in brief: as §3

[6] = tested on: Pseudomonas aeruginosa MB9798 vs MB9799; details: fold difference between efflux+ (MB9798) and efflux− (MB9799) strains; imipenem at 2 μg/mL
Method in brief: as §3

[7] = fluorescence assay, read-out: VIM-1 IC50
[8] = fluorescence assay, read-out: IMP-1 IC50

Chain of IMP-1 (P52699 whole entry, looked up, species assumed): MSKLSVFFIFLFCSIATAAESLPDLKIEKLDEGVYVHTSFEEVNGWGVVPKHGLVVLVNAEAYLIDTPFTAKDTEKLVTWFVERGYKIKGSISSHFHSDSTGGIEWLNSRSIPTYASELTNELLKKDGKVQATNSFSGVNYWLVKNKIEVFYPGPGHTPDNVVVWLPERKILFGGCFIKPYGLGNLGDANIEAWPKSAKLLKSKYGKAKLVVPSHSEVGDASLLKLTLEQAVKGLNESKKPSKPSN

SMILES | pIC50 (IMP-1; IMP-1 IC50, fluorescence assay) | pIC50 (NDM-1) | pIC50 (VIM-1; [7]) | Escherichia coli MITC95 [1] | Klebsiella pneumoniae MITC95 [2] | Serratia marcescens MITC95 [3] | Concentration of metallo-β-lactamase inhibitor which restores susceptibility of efflux + (MB9798) strain to imipenem [4] | Concentration of metallo-β-lactamase inhibitor which restores susceptibility of efflux − (MB9799) strain to imipenem [5] | Efflux ratio [6] | pIC50 (IMP-1; [8]) | pIC50 (VIM-1; VIM-1 IC50, fluorescence assay)
C[N+](C)(C)CCNS(=O)(=O)c1ccc(-c2cccc3sc(N)nc23)c(-c2nnn[nH]2)c1S(N)(=O)=O.O=C([O-])C(F)(F)F [Example 391, 2-({[4-(2-amino-1,3-benzothiazol-4-yl)-2-sulfamoyl-3-(1H-tetrazol-5-yl)phenyl]sulfonyl}amino)-N,N,N-trimethylethanaminium trifluoroacetate] | 9.68 | 10.55 | 10.02 | 3.125 µM | 6.25 µM | 3.125 µM | 1.563 | 1.563 | 1.00 |  | 
C[C@H](CN)NS(=O)(=O)c1ccc(-c2ccc(N)nc2)c(-c2nn[nH]n2)c1S(N)(=O)=O [Example 393, (R)—N^1-(1-aminopropan-2-yl)-4-(6-aminopyridin-3-yl)-3-(2H-tetrazol-5-yl)benzene-1,2-disulfonamide] |  | 10.66 | 10.34 | 0.651 µM | 2.083 µM | 1.042 µM | 0.7813 | 1.042 | 0.75 | 10.20 | 
C[C@@H](CN)NS(=O)(=O)c1ccc(-c2ccc(N)nc2)c(-c2nn[nH]n2)c1S(N)(=O)=O [Example 394] |  | 8.72 | 8.91 | 0.3906 µM | 3.125 µM | 1.563 µM | 3.125 | 1.563 | 2.00 | 8.70 | 
C[C@H](CN)NS(=O)(=O)c1ccc(-c2cccc3c2nc(N)n3C)c(-c2nn[nH]n2)c1S(N)(=O)=O [Example 395] |  | 10.50 |  | 0.3906 µM | 1.563 µM | 1.563 µM | 1.563 | 0.7813 | 2.00 | 9.81 | 9.97
C[C@@H](CN)NS(=O)(=O)c1ccc(-c2ccnc(N)c2)c(-c2nn[nH]n2)c1S(N)(=O)=O [Example 398] |  | 8.59 | 9.03 | 3.125 µM | 3.125 µM | 1.563 µM | 6.25 | 1.563 | 4.00 | 8.13 | 
NCCNS(=O)(=O)c1ccc(-c2ccnc(N)c2)c(-c2nn[nH]n2)c1S(N)(=O)=O [Example 400] |  | 9.22 | 9.61 | 0.1953 µM | 1.563 µM | 0.3906 µM | 1.563 | 0.7813 | 2.00 | 8.85 | 
NCCNS(=O)(=O)c1ccc(-c2ccc3nccn3c2)c(-c2nn[nH]n2)c1S(N)(=O)=O [Example 401] |  | 9.71 | 10.05 | 0.7813 µM | 1.563 µM | 0.3906 µM | 1.563 | 0.7813 | 2.00 | 9.32 | 
NCCCNS(=O)(=O)c1ccc(-c2cc(F)cc3[nH]c(N)nc23)c(-c2nn[nH]n2)c1S(N)(=O)=O [Example 402] |  | 10.28 | 9.80 | 0.3906 µM | 1.563 µM | 0.7813 µM | 0.7813 | 0.7813 | 1.00 | 9.50 | 
NCC(CN)NS(=O)(=O)c1ccc(-c2cccc3[nH]nnc23)c(-c2nn[nH]n2)c1S(N)(=O)=O [Example 403] |  | 10.20 |  | 1.563 µM | 3.125 µM | 1.563 µM | 1.563 | 1.563 | 1.00 | 9.27 | 9.76
NCC(CN)NS(=O)(=O)c1ccc(-c2ccc(N)nc2)c(-c2nn[nH]n2)c1S(N)(=O)=O [Example 404] |  | 9.63 | 9.53 | 0.293 µM | 1.172 µM | 0.5859 µM | 1.172 | 0.9766 | 1.20 | 9.45 | 
NCC(CN)NS(=O)(=O)c1ccc(-c2ccnc(N)c2)c(-c2nn[nH]n2)c1S(N)(=O)=O [Example 405] |  | 8.11 | 8.23 | 3.125 µM | 25 µM | 6.25 µM | 25 | 12.5 | 2.00 | 7.75 | 
NCC(CN)NS(=O)(=O)c1ccc(-c2ccc3nccn3c2)c(-c2nn[nH]n2)c1S(N)(=O)=O [Example 406] |  | 9.78 | 9.76 | 0.3906 µM | 3.125 µM | 0.7813 µM | 1.563 | 1.563 | 1.00 | 9.23 | 
NC[C@H](CO)NS(=O)(=O)c1ccc(-c2cccc3[nH]nnc23)c(-c2nn[nH]n2)c1S(N)(=O)=O [Example 407] |  | 9.85 |  | 0.7813 µM | 3.125 µM | 1.563 µM | 3.125 | 1.563 | 2.00 | 8.87 | 9.47
NC[C@H](CO)NS(=O)(=O)c1ccc(-c2ccc(N)nc2)c(-c2nn[nH]n2)c1S(N)(=O)=O [Example 408] |  | 9.38 | 9.40 | 0.09766 µM | 3.125 µM | 0.7813 µM | 1.563 | 1.563 | 1.00 | 9.16 | 
